Test results: ChEMBL document CHEMBL4340512, “Discovery of novel triazolo[4,3-b]pyridazin-3-yl-quinoline derivatives as PIM inhibitors” (Eur J Med Chem, 2019); call rule not given here

Experiments:
[1] = molecular target: Serine/threonine-protein kinase pim-3 (Homo sapiens, UniProt Q86V86); test: Inhibition of N-terminal 6-His tagged human recombinant PIM3 using PIM tide (ARKRRRHPSGPPTA) as substrate incubated for 1 hr by fluorescence based assay
[2] = molecular target: T1, Serine/threonine-protein kinase pim-1 (Homo sapiens, UniProt P11309); test: Inhibition of His tagged human recombinant PIM1 using PIM tide (ARKRRRHPSGPPTA) as substrate incubated for 1 hr by fluorescence based assay
[3] = molecular target: T2, Receptor-type tyrosine-protein kinase FLT3 (Homo sapiens, UniProt P36888); test: Inhibition of human FLT3 using EAIYAAPFAKKK as substrate incubated for 60 mins by fluorescence based assay
T2 sequence (P36888 whole entry): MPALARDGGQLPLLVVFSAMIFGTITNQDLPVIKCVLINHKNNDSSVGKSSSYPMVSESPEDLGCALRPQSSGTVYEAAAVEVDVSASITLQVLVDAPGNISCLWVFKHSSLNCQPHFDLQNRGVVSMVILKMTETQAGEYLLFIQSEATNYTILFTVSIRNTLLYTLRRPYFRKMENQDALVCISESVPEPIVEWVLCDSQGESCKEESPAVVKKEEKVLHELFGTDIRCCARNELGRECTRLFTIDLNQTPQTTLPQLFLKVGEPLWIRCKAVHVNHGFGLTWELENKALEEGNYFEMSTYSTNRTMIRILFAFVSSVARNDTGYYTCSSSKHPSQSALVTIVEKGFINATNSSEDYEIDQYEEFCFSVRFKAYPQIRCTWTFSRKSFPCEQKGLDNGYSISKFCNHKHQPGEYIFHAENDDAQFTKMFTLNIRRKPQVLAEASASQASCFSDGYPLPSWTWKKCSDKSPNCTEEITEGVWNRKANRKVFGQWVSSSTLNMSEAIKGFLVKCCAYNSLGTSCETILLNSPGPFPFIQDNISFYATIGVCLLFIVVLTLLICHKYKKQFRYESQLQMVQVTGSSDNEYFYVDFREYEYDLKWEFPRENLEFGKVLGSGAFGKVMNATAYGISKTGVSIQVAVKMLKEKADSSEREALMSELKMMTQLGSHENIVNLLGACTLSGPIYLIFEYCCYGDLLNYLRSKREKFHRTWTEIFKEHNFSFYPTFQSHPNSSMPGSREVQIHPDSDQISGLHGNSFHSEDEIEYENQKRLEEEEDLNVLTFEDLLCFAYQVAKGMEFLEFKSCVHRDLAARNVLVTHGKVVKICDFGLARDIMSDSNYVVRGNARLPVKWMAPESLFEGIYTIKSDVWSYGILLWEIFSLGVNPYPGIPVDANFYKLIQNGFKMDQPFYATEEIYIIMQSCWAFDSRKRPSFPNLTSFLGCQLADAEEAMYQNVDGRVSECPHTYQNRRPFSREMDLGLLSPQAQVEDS

[4] = molecular target: T1, Serine/threonine-protein kinase pim-1; test: Inhibition of PIM1 in human NCI-H1299 cells assessed as reduction in BAD phosphorylation at Ser-112 residue incubated for 4 hrs by ELISA; assay type: cell-based
[5] = molecular target: Voltage-gated inwardly rectifying potassium channel KCNH2 (Homo sapiens, UniProt Q12809)
[6] = molecular target: Serine/threonine-protein kinase pim-2 (Homo sapiens, UniProt Q9P1W9); test: Inhibition of His tagged human recombinant PIM2 using PIM tide (ARKRRRHPSGPPTA) as substrate incubated for 1 hr by fluorescence based assay
[7] = Clearance in iv dosed Balb/c mouse administered as single dose measured after 0.08 to 4 hrs by HPLC/MS analysis; assay type: ADME, organism-based; conditions: in vivo
[8] = Clearance in iv dosed Balb/c mouse administered as single dose measured after 0.08 to 4 hrs by HPLC/MS analysis relative to hepatic blood flow; assay type: ADME, organism-based; conditions: in vivo
MDA-MB-231 = test: Antiproliferative activity against human MDA-MB-231 cells incubated for 72 hrs by CellTiter-Glo luminescence assay; assay type: functional; conditions: MDA-MB-231, 72 h

Row | Structure (SMILES) | IC50 [1] [nM] | IC50 [2] [nM] | EC50 ([4]; read-out: EC50) [nM] | IC50 [6] [nM] | further results
1 | CN1CCOc2c1cnn1c(-c3ccc4cccc(NCC5CCCCC5)c4n3)nnc21 | > 10000 | 420 | – | > 1000 | –
2 | CN1CCOc2c1cnn1c(-c3cccc(-c4cccc(NCC5CCNCC5)c4)n3)nnc21 | – | 785 | – | – | –
3 | CN1CCOc2c1cnn1c(-c3ccc4ccnc(NC5CCCCC5)c4c3)nnc21 | 238 | 26 | 110 | 1100 | IC50 [3]: > 10000 nM
4 | CN1CCOc2c1cnn1c(-c3ccc4cccc(NCC5CCOCC5)c4n3)nnc21 | 402 | 30 | 325 | 6210 | –
5 | CN1CCOc2c1cnn1c(-c3ccnc(NC4CCNCC4)c3)nnc21 | – | > 10000 | – | – | –
6 | CN1CCOc2c1cnn1c(C(=O)Nc3ccccc3OCC3CCNCC3)nnc21 | – | 1100 | – | – | –
7 | CN1CCOc2c1cnn1c(-c3ccc4cc(Cl)cc(NCC5(F)CCNCC5)c4n3)nnc21 | 1 | 30 | – | 1270 | EC50 ([4]; nci-h1299): Not Active
8 | O=C(NOC[C@H](O)CO)c1ccc(F)c(F)c1Nc1ccc(I)cc1F [MIRDAMETINIB] | – | – | – | – | GI50 (MDA-MB-231): 1000 nM
9 | Cc1cc(NCC2(F)CCNCC2)c2nc(-c3nnc4c5c(cnn34)N(C)CCO5)ccc2c1 | – | 236 | 5960 | > 10000 | –
10 | CN1CCOc2c1cnn1c(-c3cccc(NCC4CCNCC4)c3)nnc21 | – | > 10000 | – | – | –
11 | CN1CCOc2c1cnn1c(C(=O)Nc3ccccc3NC3CCNCC3)nnc21 | – | > 10000 | – | – | –
12 | CN1CCOc2c1cnn1c(-c3ccc4cccc(NC(=O)C5CCNCC5)c4n3)nnc21 | 131 | 36 | 330 | 3740 | –
13 | CN1CCOc2c1cnn1c(-c3ccc4cccc(N5CCC(N)CC5)c4n3)nnc21 | 80 | 38 | 5310 | 2140 | –
14 | CN1CCOc2c1cnn1c(-c3cccc(C(=O)NCC4CCNCC4)c3)nnc21 | – | 870 | – | – | –
15 | CN1CCOc2c1cnn1c(-c3cccc(C(=O)NCC4CCNCC4)n3)nnc21 | – | 7100 | – | – | –
16 | CN1CCOc2c1cnn1c(-c3cccc(-c4cccc(NC5CCNCC5)c4)n3)nnc21 | – | 425 | – | – | –
17 | CN1CCOc2c1cnn1c(C(=O)Nc3ccccc3NCC3CCNCC3)nnc21 | – | > 10000 | – | – | –
18 | CN1CCOc2c1cnn1c(-c3ccc4cccc(N5CCNCC5)c4n3)nnc21 | 257 | 200 | 5360 | > 10000 | –
19 | CN1CCOc2c1cnn1c(-c3ccc4cccc(NC5CCC(C)(C)CC5)c4n3)nnc21 | 4080 | 92 | – | > 10000 | EC50 ([4]; nci-h1299): Not Active
20 | CN1CCOc2c1cnn1c(-c3ccc4cccc(NC5CCCCC5)c4c3)nnc21 | 1550 | 46 | 265 | 8040 | IC50 [3]: > 10000 nM; IC50 [5]: 6060 nM

Further lines, with some results ahead:

Row | IC50 [1] [nM] | IC50 [2] [nM] | EC50 ([4]; read-out: EC50) [nM] | IC50 [6] [nM] | Structure (SMILES) | further results
21 | 6 | 12 | 71 | 696 | CN1CCOc2c1cnn1c(-c3ccc4ccc(Cl)c(NCC5(F)CCNCC5)c4n3)nnc21 | IC50 [3]: > 10000 nM; IC50 [5]: 2100 nM
22 | 58 | 13 | 780 | 1930 | CCN1CCOc2c1cnn1c(-c3ccc4cccc(NCC5CCNCC5)c4n3)nnc21 | –
23 | 60 | 12 | 800 | 4010 | CCCN1CCOc2c1cnn1c(-c3ccc4cccc(NCC5CCNCC5)c4n3)nnc21 | –
24 | 26 | 7 | 200 | 122 | CN1CCOc2c1cnn1c(-c3ccc4ccnc(NCC5(F)CCNCC5)c4c3)nnc21 | clearance [7]: 23.2 mL/min/kg; IC50 [3]: > 10000 nM; IC50 [5]: > 20000 nM; CLH [8]: < 30%
25 | 17 | 14 | 700 | 4260 | CN1CCOc2c1cnn1c(-c3ccc4cccc(NCC5CCNCC5)c4n3)nnc21 | –
26 | 281 | 20 | – | 9940 | CN1CCOc2c1cnn1c(-c3ccc4cccc(NCC5CCOCC5)c4c3)nnc21 | –
27 | 82 | 14 | 179 | 4250 | CN1CCC(CNc2cccc3ccc(-c4nnc5c6c(cnn45)N(C)CCO6)nc23)CC1 | IC50 [3]: > 10000 nM; IC50 [5]: > 20000 nM
28 | 58 | 6 | 865 | 4870 | CN1CCOc2c1cnn1c(-c3ccc4cccc(NCC5CCNCC5)c4c3)nnc21 | –
29 | 55 | 21 | 215 | 5530 | CN1CCOc2c1cnn1c(-c3ccc4cccc(NCC5(F)CCNCC5)c4n3)nnc21 | IC50 [3]: > 10000 nM
30 | 76 | 16 | 915 | 1650 | CC(C)N1CCOc2c1cnn1c(-c3ccc4cccc(NCC5CCNCC5)c4n3)nnc21 | –
31 | 6 | 4 | 2510 | 27 | CN1CCOc2c1cnn1c(-c3ccc4ccnc(NCC5CCNCC5)c4c3)nnc21 | –
32 | 140 | 17 | 2020 | 4690 | c1ccc(OCCN2CCOc3c2cnn2c(-c4ccc5cccc(NCC6CCNCC6)c5n4)nnc32)cc1 | –
33 | 95 | 12 | 1380 | 690 | CN1CCOc2c1cnn1c(-c3ccc4cccc(NC5CCNCC5)c4n3)nnc21 | –
34 | 40 | 7 | 212 | 2870 | CN1CCC(Nc2cccc3ccc(-c4nnc5c6c(cnn45)N(C)CCO6)nc23)CC1 | IC50 [3]: > 10000 nM; IC50 [5]: > 20000 nM
35 | 7 | 10 | 465 | 858 | CN1CCOc2c1cnn1c(-c3ccc4cc(F)cc(NCC5(F)CCNCC5)c4n3)nnc21 | –
36 | 358 | 25 | 322 | 2470 | CN1CCOc2c1cnn1c(-c3ccc4cccc(NC5CCOCC5)c4n3)nnc21 | –
